Test results published in patent US20230355605A1, “DRUG FOR ENHANCING FIBRINOLYTIC SYSTEM, AND USE THEREFOR” (priority 2020, published 2023).

Columns and labels:
[1] = system: rat model of ferric chloride-induced carotid thrombosis; assay: Rat model of ferric chloride-induced carotid thrombosis; format: in vivo; conditions: 0.3, 1, 3 mg/kg oral
Method: The evaluation of the antithrombotic effect was performed according to the method described in Test Example 3 of WO2010/113022. Specifically, two hours before the procedure, the present compound suspended in a 0.5% sodium carboxymethylcellulose (CMC-Na) aqueous solution was orally administered to test groups of rats at dosages of 0.3, 1, and 3 mg/kg. […] Under anesthesia, ferric chloride was applied to a carotid artery of each rat to induce thrombus formation by damaging the blood vessel, and the time from thrombus formation to occlusion of the carotid artery (occlusion time) up to 30 minutes was measured with a Doppler blood flowmeter. Occlusion of the blood flow was defined as a state in which the average blood flow indicated zero on the chart.
The bleeding effect was also evaluated by measuring the bleeding time. The bleeding time was measured in the same rats as above by sticking the tail of each rat with an animal lancet 20 minutes after the ferric chloride treatment and then observing the presence or absence of blood adhered to filter paper every 30 seconds. The time until bleeding stopped (bleeding time) was used as an index of bleeding.

PAI-1 = molecular target: T1, PAI-1 (Homo sapiens, UniProt P05121); assay: PAI-1 activity in blood, phase I repeated oral dose study; format: in vivo
T1 construct: from tissue; host or cells: plasma of human subjects (phase I study)
T1 sequence (P05121 24-402): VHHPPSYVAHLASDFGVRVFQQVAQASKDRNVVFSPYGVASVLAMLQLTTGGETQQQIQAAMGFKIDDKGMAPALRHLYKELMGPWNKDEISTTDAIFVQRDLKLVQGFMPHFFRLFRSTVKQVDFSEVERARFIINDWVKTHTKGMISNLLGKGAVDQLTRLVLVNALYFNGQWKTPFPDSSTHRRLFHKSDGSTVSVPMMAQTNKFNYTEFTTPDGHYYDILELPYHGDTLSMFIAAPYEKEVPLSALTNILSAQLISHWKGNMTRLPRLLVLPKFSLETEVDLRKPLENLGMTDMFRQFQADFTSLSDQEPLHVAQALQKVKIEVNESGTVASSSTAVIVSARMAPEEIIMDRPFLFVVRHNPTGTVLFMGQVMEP
Method: The pharmacological activities (PAI-1 activity and t-PA activity) were evaluated using blood collected from the subjects before and after administration of the present compound or the placebo as test samples. Blood was collected before administration and 2, 4, and 8 hours after administration on the first day of the experiment (day 1) and day 7 after the start of the experiment, and on the other days, blood was collected once a day before administration (only before administration on days 2 to 6, day 8, and day 11 after the start of administration).
After collecting blood samples from the subjects, the samples were treated with 3.2% citric acid salt and centrifuged at 4° C., 1,800 g for 10 minutes to obtain plasma. The collected plasma was used for measurement of PAI-1 activity and stored frozen at -80° C. or less until measurement.
The PAI-1 activity was measured using a human PAI-1 activity assay kit (produced by Molecular Innovations Inc.). In this system, a plasma sample collected from a subject is placed on a plate coated with urokinase plasminogen activator (uPA), PAI-1 in the sample is reacted with uPA, and then active PAI-1 bound to uPA is measured as PAI-1 activity using an antigen-antibody reaction with an anti-PAI-1 antibody by measuring the absorbance at a wavelength of 450 nm with a plate reader.

BCR-ABL^IS = assay: Phase II long-term administration study with TKI in chronic-phase CML: efficacy against CML; format: in vivo, human; conditions: for Cumulative number of patients who achieved a DMR / Cumulative rate of patients who achieved a DMR: with TKI
Method: Further, the efficacy of the combined use of the present compound and the TKI against CML was evaluated.
The present compound was orally administered after breakfast to chronic-phase CML patients (33 patients) aged 20 or older and younger than 80 who had been treated orally with the TKI for 1 year or more. The dosage of the present compound was started at 150 mg/day. […] No patients dropped out or were withdrawn from the study, and all of the patients were included in analysis (SAS analysis, FAS analysis, and PPS analysis).
The efficacy against CML was evaluated from the following two points: • (1) cumulative achievement rate of CML patients who reached a DMR (BCR-ABL^IS: 0.0032% or less) • (2) change in BCR-ABL^IS
Within 28 days before the start of administration of the present compound, and 4, 8, 12, 24, 36, and 48 weeks after the start of administration of the present compound or at discontinuation, the investigator collected peripheral blood and conducted a test using a BCR-ABL^IS quantitative PCR kit (produced by Sysmex Corporation) to obtain results (IS%, ABL copy number, and BCR-ABL copy number).

pregnant rats = assay: Embryo-fetal developmental toxicity study; format: in vivo, rat; conditions: oral, days 7 to 17 of gestation
Method: The effect of oral administration of the present compound on embryo-fetal development was examined using rats. Specifically, the present compound was orally administered to pregnant rats from implantation to closure of the hard palate (days 7 to 17 of gestation), and the effect on the mothers, and embryos and fetuses was examined. Furthermore, the plasma concentration of the present compound after administration was measured, and its change was examined. During the study period, the general conditions of all of the animals were observed, and their body weights were measured; in the toxicity group, food consumption was measured; a Cesarean section test was performed on day 20 of gestation. Thereafter, fetal visceral and skeletal specimens were prepared, and a fetal examination was performed.

hERG current = molecular target: T2, hERG current (Homo sapiens, UniProt Q12809); assay: Effect on hERG current (whole-cell patch clamp); format: cell-based; conditions: 0.1, 1, 10 µM; up to 10 µM; 10 minutes after application; hERG-expressing HEK293 cells
T2 construct: expressed in transfected cells; host or cells: HEK293
T2 sequence (Q12809 whole entry): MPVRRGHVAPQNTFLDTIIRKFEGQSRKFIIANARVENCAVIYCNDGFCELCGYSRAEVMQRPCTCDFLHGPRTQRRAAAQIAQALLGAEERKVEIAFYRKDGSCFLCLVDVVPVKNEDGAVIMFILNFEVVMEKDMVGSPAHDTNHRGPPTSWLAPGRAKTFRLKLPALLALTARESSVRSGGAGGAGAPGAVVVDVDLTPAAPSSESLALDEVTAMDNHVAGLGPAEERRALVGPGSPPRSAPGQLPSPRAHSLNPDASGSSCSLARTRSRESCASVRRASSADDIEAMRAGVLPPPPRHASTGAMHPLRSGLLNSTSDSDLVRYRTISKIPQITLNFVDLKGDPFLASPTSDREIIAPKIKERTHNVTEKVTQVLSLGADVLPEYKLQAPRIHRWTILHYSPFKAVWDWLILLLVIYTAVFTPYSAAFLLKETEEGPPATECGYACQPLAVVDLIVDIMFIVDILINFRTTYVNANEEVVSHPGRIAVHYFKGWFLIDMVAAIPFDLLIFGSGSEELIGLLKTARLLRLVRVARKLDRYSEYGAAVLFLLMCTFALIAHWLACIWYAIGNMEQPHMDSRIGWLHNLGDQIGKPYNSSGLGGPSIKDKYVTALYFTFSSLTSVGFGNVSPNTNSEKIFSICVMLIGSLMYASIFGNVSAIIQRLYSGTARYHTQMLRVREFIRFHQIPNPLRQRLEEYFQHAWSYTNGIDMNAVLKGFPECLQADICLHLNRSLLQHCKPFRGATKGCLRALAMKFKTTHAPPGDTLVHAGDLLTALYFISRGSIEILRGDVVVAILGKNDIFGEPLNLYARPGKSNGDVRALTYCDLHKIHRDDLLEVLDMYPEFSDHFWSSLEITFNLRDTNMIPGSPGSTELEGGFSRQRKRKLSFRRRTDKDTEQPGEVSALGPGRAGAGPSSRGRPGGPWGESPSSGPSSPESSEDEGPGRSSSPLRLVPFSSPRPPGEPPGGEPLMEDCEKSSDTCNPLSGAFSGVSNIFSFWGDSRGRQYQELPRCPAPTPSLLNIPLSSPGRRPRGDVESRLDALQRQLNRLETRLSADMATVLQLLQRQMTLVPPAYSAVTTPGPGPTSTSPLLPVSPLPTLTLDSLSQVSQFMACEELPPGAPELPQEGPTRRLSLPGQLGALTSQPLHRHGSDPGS
Method: The effect of the present compound on hERG current was examined by a whole-cell patch clamp method using HEK293 cells transfected with the human ether-a-go-go-related gene (hERG). This study was performed as part of a safety pharmacology core battery study to predict the risk of a drug-induced proarrhythmic effect, in particular, prolongation of QT interval on an electrocardiogram, in an in vitro study. The concentration of the present compound was set to 0.1, 1, and 10 µM, and the tail peak current suppression rate (%) 10 minutes after application relative to that before application was used as an index of the effect on hERG current. As a vehicle control, 0.1 v/v% DMSO was used, and as a positive control, 0.1 µmol/L of E-4031 was used.

SMILES: O=C(Nc1ccc(Cl)cc1C(=O)[O-])c1cccc(-c2cccc3cccnc23)c1.[Na+] [present compound, sodium 5-chloro-2-({ [3-(quinolin-8-yl)phenyl]carbonyl}amino)benzoate]
- occlusion time ([1]; 2 hours before procedure): prolongs the occlusion time in a dose-dependent manner
- bleeding time vs vehicle group ([1]; tail lancet 20 minutes after ferric chloride): no significant difference
- PAI-1 activity in blood vs placebo (PAI-1; 60 mg/day oral, days 1 and 7): neither PAI-1 activity nor t-PA activity was different
- time after administration of maximal decrease in PAI-1 activity (PAI-1; 120 mg/day oral): 8 h
- PAI-1 activity in blood (PAI-1; 120 mg/day oral, days 1 and 7): decreased
- dosage at which PAI-1 is significantly inhibited and t-PA enhanced in humans (PAI-1; oral): at least 120 mg per day
- Cumulative number of patients who achieved a DMR (BCR-ABL^IS; 4 weeks after the start of administration, 33 patients): 5
- Cumulative rate of patients who achieved a DMR (BCR-ABL^IS; 4 weeks after the start of administration): 15.2%
- Cumulative number of patients who achieved a DMR (BCR-ABL^IS; 8 weeks after the start of administration, 33 patients): 9
- Cumulative rate of patients who achieved a DMR (BCR-ABL^IS; 8 weeks after the start of administration): 27.3%
- Cumulative number of patients who achieved a DMR (BCR-ABL^IS; 12 weeks after the start of administration, 33 patients): 9
- Cumulative rate of patients who achieved a DMR (BCR-ABL^IS; 12 weeks after the start of administration): 27.3%
- change in BCR-ABL^IS vs baseline (BCR-ABL^IS; 15 patients, 150 mg/day continuous, weeks 12 and 24): significant decrease
- change in BCR-ABL^IS vs baseline (BCR-ABL^IS; 18 patients, 150 mg/day to 180 mg/day increase, week 48): significant decrease
- Cumulative number of patients who achieved a DMR (BCR-ABL^IS; 24 weeks after the start of administration, 33 patients): 10
- Cumulative rate of patients who achieved a DMR (BCR-ABL^IS; 24 weeks after the start of administration): 30.3%
- change in BCR-ABL^IS vs baseline (BCR-ABL^IS; 33 patients, from week 12 onward, Wilcoxon test): significant decrease
- Cumulative number of patients who achieved a DMR (BCR-ABL^IS; 36 weeks after the start of administration, 33 patients): 11
- Cumulative rate of patients who achieved a DMR (BCR-ABL^IS; 36 weeks after the start of administration): 33.3%
- Cumulative number of patients who achieved a DMR (BCR-ABL^IS; 48 weeks after the start of administration, 33 patients): 11
- Cumulative rate of patients who achieved a DMR (BCR-ABL^IS; 48 weeks after the start of administration): 33.3%
- cumulative DMR achievement rate (BCR-ABL^IS; from week 36 onward, 150 to 180 mg/day with TKI): 33.3%
- patients who achieved a DMR (BCR-ABL^IS; of the 33 patients, 150 to 180 mg/day with TKI): 11 patients
- BCR-ABL^IS level (mean ± standard deviation) (BCR-ABL^IS; week 4, 33 patients, P = 0.1222): 0.0134±0.01301%
- BCR-ABL^IS level (mean ± standard deviation) (BCR-ABL^IS; week 8, 33 patients, P = 0.0929): 0.0129±0.01569%
- BCR-ABL^IS level (mean ± standard deviation) (BCR-ABL^IS; week 12, 33 patients, P = 0.0228): 0.0133±0.02012%
- BCR-ABL^IS level (mean ± standard deviation) (BCR-ABL^IS; week 24, 33 patients, P = 0.0427): 0.0149±0.02596%
- BCR-ABL^IS level (mean ± standard deviation) (BCR-ABL^IS; week 36, 33 patients, P = 0.0304): 0.0152±0.03427%
- BCR-ABL^IS level (mean ± standard deviation) (BCR-ABL^IS; week 48, 33 patients, P = 0.0124): 0.0210±0.06718%
- effect on pregnancy, embryos and fetuses (pregnant rats): no effect on maintenance of pregnancy, no embryolethal effect, no fetal growth suppressive effect, and no teratogenic effect
- no-observed-adverse-effect level for embryos and fetuses (pregnant rats): 1000 mg/kg/day
- no-observed-adverse-effect level for the mothers (pregnant rats): 1000 mg/kg/day
- suppressive effect on hERG current (tail peak current suppression rate) (hERG current): no suppressive effect
